As a reminder, the melting point is the temperature of the solid-liquid transition. What is called boiling point is the temperature of boiling at a given pressure.

Conditions in one data set: not given
On to `C[C@@H]1O[C@@H](O[C@H]2C[C@@H](O)[C@]3(CO)[C@H]4[C@H](O)C[C@]5(C)[C@@H](C6=CC(=O)OC6)CC[C@]5(O)[C@@H]4CC[C@]3(O)C2)[C@H](O)[C@H](O)[C@H]1O`, for which the melting point was 200 °C. In turn, `CCCCCCCCCCI` displayed a log10 vapour pressure (mmHg) of -1.85 and a melting point of -16.3 °C. In the same order, the values of `Clc1cc2oc3c(Cl)c(Cl)ccc3c2c(Cl)c1Cl` are -8.65 and 206 °C. Consider `CCN(CC)N=O`, for which the boiling point amounted to 177 °C, the log10 Henry constant (atm·m³/mol) was -5.44, the log10 vapour pressure (mmHg) was -0.0655 and the ready biodegradability result is recorded as “not readily biodegradable”. On to `CCC(C)c1cc([N+](=O)[O-])cc([N+](=O)[O-])c1OC(C)=O` (configuration not stated), for which the log10 vapour pressure (mmHg) is -3.22 and the melting point came out at 26 °C. In the case of `O=C(O)Cc1cccc(F)c1`, the melting point was found to be 43 °C. Take `CCCCCOC(=O)CC`: the boiling point turned out to be 169 °C, the log10 vapour pressure (mmHg) came to 0.556 and the melting point was -73.1 °C. The compound `CC(C)[C@@H](C)CC[C@@H](C)[C@H]1CC[C@H]2C3=CC[C@H]4C[C@@H](O)CC[C@]4(C)[C@H]3CC[C@]12C` displayed a melting point of 146 °C.

For `CCCCCCCCC(=O)O`, the boiling point came out at 254 °C, the log10 vapour pressure (mmHg) is -2.78, the melting point came out at 12.3 °C and the ready biodegradability result is “readily biodegradable”. As to `O=S(=O)(O)CCN1CCN(CCS(=O)(=O)O)CC1`, the ready biodegradability result is recorded as “not readily biodegradable”. The compound `Nc1ccc(CCc2ccc(N)cc2)cc1` came in with a melting point of 137 °C. Consider `O=C(O)Cc1cccc(O)c1`, for which the melting point came out at 132 °C. `OC(Cn1cncn1)(c1ccc(F)cc1)c1ccccc1F` (configuration not stated): the log10 Koc (L/kg) turned out to be 1.88, the log10 vapour pressure (mmHg) is -10.3 and the melting point is 130 °C. For `Clc1cc(Cl)c2c(c1)oc1c(Cl)cc(Cl)cc12`, the log10 vapour pressure (mmHg) is -7.57 and the melting point stood at 177 °C. Compound `NC(=O)OCC(O)COc1ccc(Cl)cc1` (configuration not stated) displayed a melting point of 90 °C.

`Cc1ccccc1-c1ccccc1`: the boiling point was determined as 256 °C and the melting point was -0.2 °C.

In turn, `O=[N+]([O-])C1CCCCC1` yielded a boiling point of 205 °C and a melting point of -34 °C. Take `COC(=O)/C=C/C(C)=C\C=C\C(C)=C\C=C\C=C(C)\C=C\C=C(C)\C=C\C(=O)O`: the melting point worked out at 198 °C. The compound `O=C(O)c1ccc([N+](=O)[O-])c(O)c1` came in with a melting point of 230 °C.

With `Cc1cccc2cc3ccccc3cc12`, the melting point is 85.5 °C. `COc1cccc(OC)c1OC` had a boiling point of 235 °C and a melting point of 48.5 °C. For `Nc1ccc(Cl)cc1C(=O)O`, the ready biodegradability result is “not readily biodegradable”. `FC(=C(F)C(F)(F)F)C(F)(F)F` displayed a boiling point of 1.5 °C, a log10 vapour pressure (mmHg) of 3.3 and a melting point of -129 °C. With `C1OC1C1CO1` (configuration not stated), the log10 Koc (L/kg) is 0.4 and the log10 vapour pressure (mmHg) is 1.59.

`CNS(=O)(=O)c1ccc(C)cc1` displayed a melting point of 78.5 °C. `CC(C)(Oc1ccccc1)C(=O)O` returned a melting point of 98.5 °C. In turn, `CC#CC(=O)OCC` showed a boiling point of 163 °C. Compound `COc1cccc(F)c1` showed a boiling point of 159 °C and a melting point of -35 °C. `C=CCCCCC(=O)O`: the boiling point was determined as 226 °C and the melting point is -6.5 °C.

For `CCOCC(=O)Cl`, the boiling point turned out to be 125 °C. For the compound `CSc1ccc(O)cc1C`, the ready biodegradability entry is recorded as “not readily biodegradable”.

As for `Clc1ccc2ccc(Cl)c(Cl)c2c1`, the log10 Koa came to 7.5. On to `CCOCCCO`, for which the melting point is 160 °C. For `CCOC(=O)C(F)(F)C(F)(F)F`, the melting point came out at 75.5 °C. With `CCC(Cl)CC`, the boiling point stood at 97.5 °C, the log10 vapour pressure (mmHg) was 1.67 and the melting point was -105 °C.

As to `C=CCCC=O`, the boiling point is 99 °C. Consider `C#COCC`, for which the boiling point amounted to 50 °C.

As for `CC(=O)NC(=O)c1ccccc1O`, the melting point turned out to be 148 °C. Turning to `CCCCCCCC(C)CC` (configuration not stated), the boiling point worked out at 188 °C and the melting point is -92.9 °C.

Regarding `O=C1c2ccccc2C(=O)C1c1ccc(Cl)cc1`, the melting point was found to be 146 °C. Regarding `Clc1cc(Cl)c2oc3c(Cl)c(Cl)c(Cl)cc3c2c1`, the log10 vapour pressure (mmHg) was -8.73 and the melting point was found to be 219 °C. As to `COC(=O)CCl`, the boiling point was determined as 130 °C, the log10 vapour pressure (mmHg) was found to be 0.882, the melting point was -32.1 °C and the ready biodegradability entry was “readily biodegradable”. In the case of `CC(C)(C)I`, the boiling point came to 100 °C and the melting point is -38.2 °C.

`NNC(=O)c1ccc(N)cc1` had a melting point of 226 °C.

`CCN1CCNC(=O)C1=O` returned a melting point of 108 °C. On to `CC(C)(C)NC(=O)[C@H]1CC[C@H]2[C@@H]3CC[C@H]4NC(=O)C=C[C@]4(C)[C@H]3CC[C@]12C`, for which the melting point was 253 °C.

`CN[C@@H](C)Cc1ccccc1.Cl` registered a melting point of 172 °C. The compound `Clc1cc(Cl)cc(Br)c1` registered a boiling point of 232 °C and a melting point of 83 °C. In the case of `COP(=O)(OC)OC(=CCl)c1cc(Cl)c(Cl)cc1Cl`, the log10 Koc (L/kg) worked out at 3.01, the log10 vapour pressure (mmHg) was -7.38, the melting point came to 96.3 °C and the ready biodegradability entry is given as “not readily biodegradable”.

`Cc1ccc(Br)c(C)c1` showed a boiling point of 205 °C and a melting point of -17 °C. The compound `Brc1ccc2[nH]ccc2c1` had a melting point of 91 °C. The compound `CCOC(=O)Nc1ccc2c(c1)N(C(=O)CCN1CCOCC1)c1ccccc1S2` had a melting point of 156 °C. `CCC(C)(C)C(C)C` gave a boiling point of 115 °C, a log10 biodegradation half-life (days) of 1.72, a log10 vapour pressure (mmHg) of 1.43 and a melting point of -101 °C. For the compound `ClCCOC(c1ccccc1)c1ccccc1`, the ready biodegradability result is reported as “not readily biodegradable”.

Regarding `O=C(O)c1c(Cl)ccc2cc(Cl)cnc12`, the melting point stood at 274 °C. On to `Clc1cccc(Br)c1`, for which the boiling point was 196 °C and the melting point is -21.5 °C. Turning to `NC(=O)c1c(F)c(F)c(F)c(F)c1F`, the melting point is 147 °C. In turn, `C=C1C(=O)O[C@@H]2C[C@@]3(C)CCC[C@H](C)C3=C[C@H]12` had a boiling point of 275 °C and a melting point of 76 °C. Regarding `N=CNO`, the melting point worked out at 114 °C. `C=CC[C@]1(O)CC[C@H]2[C@@H]3CCC4=CC(=O)CCC4=C3C=C[C@@]21C`: the melting point turned out to be 120 °C. `Cc1ccc2cccc([N+](=O)[O-])c2n1` returned a melting point of 140 °C. On to `CC(C)(c1ccccc1)c1ccc(O)cc1`, for which the boiling point stood at 335 °C, the log10 vapour pressure (mmHg) is -4.23, the melting point was determined as 75 °C and the ready biodegradability entry is “not readily biodegradable”.

In turn, `CC(=O)c1cccc(N)c1` showed a boiling point of 290 °C and a melting point of 98.5 °C. As to `CCCCC(CC)COP(=O)(O)OCC(CC)CCCC` (configuration not stated), the melting point is -50 °C and the ready biodegradability entry is listed as “not readily biodegradable”. For the compound `Oc1ccc(O)c(Cc2ccccc2)c1`, the melting point is 106 °C. As for `C=CCOC1=NS(=O)(=O)c2ccccc21`, the melting point came out at 138 °C and the ready biodegradability result is recorded as “not readily biodegradable”.

Compound `Clc1ccc(Cl)c(-c2c(Cl)cccc2Cl)c1` showed a log10 Koa of 8.45 and a log10 vapour pressure (mmHg) of -4.65.

`N#CSCCl`: the boiling point came to 185 °C. In the case of `C[C@@H]1CC2=CC(=O)CC[C@]2(C)[C@H]2CC[C@@]3(C)[C@@H](CC[C@]3(C)O)[C@H]12`, the melting point was found to be 146 °C. Same read-out and setting: under `Cc1cc(Br)cc(Br)c1O` stands 58 °C.

The same data set, now with this note: fish.
As for `COP(=O)(OC)OC(=CCl)c1cc(Cl)c(Cl)cc1Cl`, the log10 BCF stood at 1.61 and the log10 biotransformation half-life (days) is -1.02. Compound `ClCCOC(c1ccccc1)c1ccccc1` yielded a log10 BCF of 2.51 and a log10 biotransformation half-life (days) of -0.07. With `CCCCC(CC)COP(=O)(O)OCC(CC)CCCC` (configuration not stated), the log10 BCF worked out at 0.64.

Source of the values: the OPERA property sets (Mansouri et al. 2018).
